In US20210100242A1, “FORMULATIONS FOR CONTROL AND REPELLENCY OF BITING ARTHROPODS” (BEDOUKIAN RESEARCH, INC., priority 2019, published 2021):

System: Adult female Aedes aegypti
Assay: Membrane feeder repellency test: mosquitoes probing treated collagen membranes over blood-filled wells
Format: in vivo
Conditions: Total repellent 0.30%
Description: Adult female Aedes aegypti were obtained from the i2LResearch USA, Inc. colony. Two hundred fifty (250) mosquitoes were used per replicate (seven replicates). Mosquitoes were at least 6 days old and had been deprived of sucrose solution for at least 18 hours prior to testing.
An exposure container was used to present the mosquitoes with a choice of blood-filled wells that were covered with collagen membranes (3 cm in diameter). The collagen membranes were treated by pipetting 6.25 μl of the test treatment onto the appropriate membrane and spreading it evenly with the tip of the pipette.
Exposure container. A 30.5 cm×30.5 cm×30.5 cm container (rigid plastic frame and a sleeved entry on one side and a sliding trap door on the bottom). The container was supported by four (4 cm high) legs.
Membrane feeder. Five wells (3 cm in diameter x 8 mm in depth) in line on a hollow plastic block (6 cm wide x 22 cm long x 3 cm deep). The plastic block fit into the bottom of the exposure container. Hoses mounted on either end of the membrane feeder carried warm water that was pumped from a water bath. The sliding plastic trap door in the bottom of the exposure container covered and uncovered the wells in the membrane feeder, allowing mosquitoes to access the blood-filled wells that were covered with treated collagen membranes.
Study set-up. The membrane feeder was connected to a heated water bath, and warm water passed through the feeder via a circulating pump so that the wells were warmed to 96-100° F. Seventy-two (72) mg of ATP (disodium salt) were added to 26 ml of bovine blood. Sodium citrate was also added to the blood during collection to prevent clotting. The blood was poured into the wells until it completely filled each well (meniscus slightly above the level of the well).
Circular pieces (3 cm in diameter) of collagen membrane were placed over each of the wells. […]
Treatment and exposure to mosquitoes. […] The number of mosquitoes probing the membrane covering each well was recorded every two minutes for twenty minutes. […]

Going from CCN(CC)C(=O)c1cccc(C)c1 [DEET, N,N-diethyl-m-toluamide, reference compound] to CCNC(=O)C1CC(C)CCC1C(C)C (stereo not drawn) [WS3, N-ethyl-p-menthane-3-carboxamide], the “Test result, percentage relative to 0.3 wt % DEET in the same test” value rises from 100.0% to 130.0%.

CC1CCC(C(C)(C)O)C(O)C1 (stereo not drawn) [PMD, para-menthane-3,8-diol, reference compound] was tested, and the “Test result, percentage relative to 0.3 wt % DEET in the same test” value was 84.6%.
